Data set [1] is described as follows: Acute toxicity in the rat (LD50, Probits method). As to conditions: in vivo. As for the experimental part:
(§1) The study has been performed using whitish Swiss mice weighing about 20 g and Wistar rats, in the phase of weight increase, weighing about 150 g, of both sexes. The product has been administered to fasted animals (2 hours for mice and 18 hours for rats) by gastric tube (oral route) or intraperitoneal injection. Sulfipyrazone has been used as reference drug.
(§2) For the statistic calculation of LD50 and of the respective confidence limits for p=0.05, the Probits method was followed (Finney D. J.--Probit analysis-Cambridge Univ. Press, London and New York, 1952), taking into account the death rates in the 8 days following the treatments.

For data set [2], the system named is platelet aggregation induced by adrenaline. Briefly: "Ex vivo" platelet antiaggregating action. It is filed as in vivo, rabbits. As to conditions: rabbit PRP, 35 mcg/ml adrenaline. From the text:
By this test, the effect of VQG 582, acetylsalicylic acid or sulfinpyrazone pretreatment of rabbits on the platelet aggregation induced on the PRP of these animals by 35 mcg/ml adrenaline, has been valued.

Data set [3] has as its system cutaneous temperature of the paw. Briefly: Vasodilating action in the mouse (cutaneous temperature of the paw). As to conditions: for mean variation of the cutaneous temperature in the 3h following the treatment: in °C (unit assumed). It is filed as in vivo, Swiss male whitish mice. How it is done: Swiss male whitish mice weighing about 20 g have been used. The cutaneous temperature of the paw has been measured, in conditioned room by means of a suitable thermometric equipment, (a) for three times, at 30 minutes intervals, before treatment (basal temperature), and (b) every 30 minutes in the three hours following the drugs treatment.

Data set [4] in a line: Hypocholesterolemic action in rats fed with Nath's diet. As to conditions: 200 mg/kg per os, 40 days. It is filed as in vivo.
Experimental: 24 Hours after the last administration, the survived animals have been sacrificed and the dosage of total serum cholesterol, serum triglycerides, serum phospholipids and serum free fatty acids has been performed according to the methods described by Abell et al. (J. Biol. Chem., 195, 375, 1952), VAN HANDALL et al. (J. Lab. Clin. Med., 50, 152, 1957), MORRISON (Anal. Biochem., 7, 218, 1964), DOLE AND MEINERTZ (J. Biol. Chem., 235, 2595, 1960).
The livers were withdrawn and weighed, homogenized and extracted in soxhlet. The extracted lipids, evaporated, have been weighed and expresses as % of fresh organ.
The conditions of data set [5]: rat, in vivo.
The nature of data set [6]: Acute toxicity in the mouse (LD50, Probits method). As to conditions: in vivo. As for the experimental part:
as §1, §2

The test system of data set [7] is thrombocytopenia induced by Arthus reaction. In words: Inhibition of the thrombocytopenia induced by Arthus reaction in the guinea-pig. The class given is in vivo, guinea pigs. As to conditions: guinea pig after antigenic reaction, 100 mg/kg os; for % inhibition: thrombocytopenia. The source says: The method described by White and Butler (Thromb. Diath. Haemorr., 34, 533, 1975) has been used.

The nature of data set [8]: Pharmacokinetics in the rat by the oral route. As to conditions: equimolar doses, compared with VQG 582.
The mark [9] stands for this setting: ip, intraperitoneal route, female.
The mark [10] stands for this setting: ip, intraperitoneal route, male.

Bounds are passed on as bounds.

As usually defined, the LD50 is the dose at which mortality reaches 50%. Lower therefore signals greater toxicity. The term % inhibition denotes the share of the control response that was lost under treatment. Higher therefore signals a strong effect.

As for `O=C(OCC1(CC[S+]([O-])c2ccccc2)C(=O)N(c2ccccc2)N(c2ccccc2)C1=O)c1cccnc1` (centres unmarked) [VQG 582, 1,2-diphenyl-4-[2-(phenylsulfinyl)-ethyl]-4-(nicotinoyloxymethyl)-pyrazolidine-3,5-dione], the LD50 at 192 h in data set [1] (setting [9]) was 2320 mg/kg; in data set [1] (setting [10]), 2690 mg/kg; in data set [1] (po, female), over 4000 mg/kg; in data set [1] (po, male) it was over 4000 mg/kg; in data set [6] (setting [9]) it was 3250 mg/kg; in data set [6] (setting [10]), 3130 mg/kg. Moreover, the LD50 at 192 h is over 4000 mg/kg in data set [6] (po, female) and over 4000 mg/kg in data set [6] (po, male). In addition, the inhibition % in data set [2] (40 mg/kg os) is given as 15%; in data set [2] (80 mg/kg os) it was 70%; in data set [2] (120 mg/kg os) it was 85%. Further, the max. effect time in data set [3] (100 mg/kg os) amounted to 60 min. In addition, the “mean variation of the cutaneous temperature in the 3h following the treatment” value (“mean variation” for short) in data set [3] (100 mg/kg os) was “+0.60”. Moreover, in data set [4], the “% dead animals” value came to 10%. In data set [4], this compound had a serum cholesterol of 294.1 mg/100 ml. Further, in data set [4], the “serum free fatty acids” value was determined as 0.31 mg/100 ml. In addition, the serum phospholipids in data set [4] was 157.1 mg/100 ml. In addition, the serum triglycerides in data set [4] amounted to 113.8 mg/100 ml. Further, the liver lipids % in data set [4] (% of fresh organ) was 16.0%. In addition, the “pharmacological action after oral administration” value in data set [5] is recorded as “pharmacological action clearly delayed”. Also, the “blood concentrations expressed as sulfinpyrazone” value in data set [5] (po) was “prolongation of the blood concentrations expressed as sulfinpyrazone”. In addition, the metabolism entry in data set [5] (po) is “metabolized via an intermediate step, respectively to nicotinic acid and sulfinpyrazone”. Also, the “presence of unchanged compound in the plasma” value in data set [5] (po) is recorded as “found unchanged in the plasma 30 minutes to 1 hour after the treatment”. In addition, the “N. platelets ± S.E.” value in data set [7] was 218.5 10^3 /mm^3. Also, in data set [7], the “% inhibition” value came out at 70.2%.

Consider `CC(=O)Oc1ccccc1C(=O)O` [ASA, acetylsalicylic acid], for which the inhibition % in data set [2] (50 mg/kg os) is recorded as 30%; in data set [2] (75 mg/kg os) it was 70%; in data set [2] (100 mg/kg os), 100%.

Take `O=C1C(CC[S+]([O-])c2ccccc2)C(=O)N(c2ccccc2)N1c1ccccc1` (centres unmarked) [sulfinpyrazone, 1,2-diphenyl-4-[2-(phenylsulfinyl)ethyl]-pyrazoline-3,5-dione]: the LD50 at 192 h in data set [1] (setting [9]) was 157 mg/kg; in data set [1] (setting [10]), 149 mg/kg; in data set [1] (po, female) it was 390 mg/kg; in data set [1] (po, male) it was 348 mg/kg; in data set [6] (setting [9]) it was 159 mg/kg; in data set [6] (setting [10]), 163 mg/kg. In addition, the LD50 at 192 h in data set [6] (po, female) turned out to be 335 mg/kg; in data set [6] (po, male) it was 368 mg/kg. The results for the inhibition % in data set [2] (40 mg/kg os), in data set [2] (80 mg/kg os) and in data set [2] (120 mg/kg os) were 5%, 30% and 70%, respectively. In data set [3] (100 mg/kg os), the “mean variation” value was “+0.05”. The “N. platelets ± S.E.” value in data set [7] is recorded as 204.3 10^3 /mm^3. The “% inhibition” value in data set [7] was 63.1%.

Consider `O=C(O)c1cccnc1` [nicotinic acid], for which, in data set [3] (50 mg/kg os), the max. effect time is 30 min and the “mean variation” value was “+0.75”. The absorption result in data set [8] was “faster absorption”. Also, in data set [4], the “% dead animals” value came to 10%, the serum cholesterol is 324.3 mg/100 ml, the “serum free fatty acids” value stood at 0.39 mg/100 ml and the serum phospholipids stood at 161.7 mg/100 ml. The AUC result in data set [5] (po) is listed as “AUC superimposable to VQG 582”.

These data come from patent US4542141A, “Compound having vasodilating, antiaggregating and hypocholesterolemic activities, process for the preparation thereof and pharmaceutical compositions therefrom” (Edmond Pharma s.r.l., priority 1982, dated 1985).
